Molecular target: Norepinephrine transporter (Rattus norvegicus, UniProt Q9JIA2)

Compound | Ki [nM]
c1ccc2c(CCC3CCNCC3)c[nH]c2c1 | 2760
COCCCC/C(=N\OCCN)c1ccc(C(F)(F)F)cc1 [(1E)-5-methoxy-1-[4-(trifluoromethyl)phenyl]pentan-1-one O-(2-aminoethyl)oxime] | 1360

— BindingDB's records for doi:10.1016/s0014-2999(98)00241-6 (Mcgill University, 1998)
